The term IC50 denotes the concentration needed to halve the response being measured. For orientation: melting point means the temperature, or range, at which the solid turns liquid.

One data set concerns the target T1, hFSH-R (Homo sapiens, UniProt P23945).
T1 construct: expressed in transfected cells; host or cells: CHO-3D2 cells (CHO-K1 parental line)
T1 sequence (P23945 18-695): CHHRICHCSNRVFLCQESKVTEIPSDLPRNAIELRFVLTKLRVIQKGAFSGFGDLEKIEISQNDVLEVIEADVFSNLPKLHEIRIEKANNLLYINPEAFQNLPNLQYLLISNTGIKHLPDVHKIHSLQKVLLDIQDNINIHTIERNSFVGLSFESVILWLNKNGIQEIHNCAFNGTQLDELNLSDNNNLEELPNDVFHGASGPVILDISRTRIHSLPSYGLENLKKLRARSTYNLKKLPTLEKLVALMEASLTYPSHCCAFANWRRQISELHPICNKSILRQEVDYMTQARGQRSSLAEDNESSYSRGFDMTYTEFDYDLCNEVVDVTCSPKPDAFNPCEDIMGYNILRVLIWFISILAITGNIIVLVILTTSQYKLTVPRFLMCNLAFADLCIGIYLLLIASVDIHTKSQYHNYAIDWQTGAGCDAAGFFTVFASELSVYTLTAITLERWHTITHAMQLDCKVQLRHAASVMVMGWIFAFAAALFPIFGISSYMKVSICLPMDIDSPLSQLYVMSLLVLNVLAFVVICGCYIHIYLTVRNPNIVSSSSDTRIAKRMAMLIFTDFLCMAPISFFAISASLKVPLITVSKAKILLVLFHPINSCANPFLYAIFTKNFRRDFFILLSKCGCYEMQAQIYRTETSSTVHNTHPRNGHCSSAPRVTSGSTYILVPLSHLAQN
Briefly: cAMP accumulation (RIA) in CHO-3D2 cells (hFSH-R), hFSH-induced. Type of data set: cell-based. As to conditions: for Emax: read-out: cAMP % efficacy. As for the experimental part: In Vitro Bio-Assay, Selectivity and Dependency of Agonists and Antagonists to the FSH Receptor
Compound Vehicle: Stock compounds were solubilized in 100% DMSO (Sigma-Aldrich Chemical Co., St. Louis, Mo.) at a concentration of 30 mM. The compounds subsequently were diluted in sterile assay medium consisting of Opti-MEM® I (Invitrogen/Life Technologies, Carlsbad, Calif.) with 0.1% (w/v) BSA (Sigma-Aldrich) prior to use in the bio-assay. The final concentration of DMSO in the assay was 0.1%.
Plated cells are then incubated at 37° C. in a humidified 5% CO2/95% air atmosphere.
Assay: On the day of the assay, cells were washed three times with 100 μl/well of assay medium consisting of Opti-MEM® I (Invitrogen/Life Technologies) with 0.1% (w/v) BSA (Sigma-Aldrich). Medium was removed and 100 μl of assay medium was added to each well. Plates were incubated for an additional 30 minutes at 37° C. […] Reactions were terminated by the addition of 50 μl of 0.2N hydrochloric acid to each well and cAMP-accumulation was measured by radioimmunoassay (RIA) using a commercially available kit (Amersham Biosciences, Piscataway, N.J.).
All test compounds were evaluated in a dose-response paradigm ranging from 0.01 to 30 μM. Controls and test compounds were evaluated in quadruplicate in a 96-well format.
Along with the test compounds, FSH also was run as a positive control in the agonist mode using concentrations ranging from 0.1-1000 ng/ml.
Data were analyzed by one-way analysis of variance and significant differences between treatments and control determined by Least Significant Difference test.
Test compounds were compared to the effect of purified human FSH.
Background: cAMP levels reflect the balance of adenylyl cyclase and phosphodiesterase activity.

The target of a further data set is T2, human FSH receptor (Homo sapiens, UniProt P23945).
T2 construct: host or cells: CHO-K1 (CHO FSH-R 6CRE-Luc, 1D7 cells)
T2 sequence (P23945 18-695): T1 sequence (P23945 18-695)
Briefly: Follicle-Stimulating Hormone Receptor-Dependent Cre-Luciferase Reporter Gene Assay (CHO FSH-R 6CRE-Luc cells). To be noted: for IC50: dose-response format, in presence of EC50 of purified human FSH. Type of data set: cell-based. In short, it runs like this: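 CHO-K1 cells stably expressing human FSH receptor and a 6×CRE-driven luciferase reporter; compounds in growth medium with 0.2% DMSO, incubated 4 h at 37 °C. Luciferase measured by chemiluminescence (RLU/sec/well); 2-dose results given as percent inhibition of the response to an EC50 concentration of FSH.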

Where [1] appears, read: inhibition of cAMP accumulation induced by hFSH at EC20, CHO-3D2 cells.

Like-named read-outs stand apart in the source and are kept apart here.

On to `COc1ccccc1-c1ccc(C(=O)N2Cc3ccc(C(=O)NCC(c4ccccc4)N(C)C)n3Cc3ccccc32)cc1` (stereo not drawn) [Example 2], for which, on hFSH-R, the IC50 came to 1.2 µM and the Emax worked out at 100%. Also, the half-inhibitory concentration (IC50) on human FSH receptor was 25.7 µM.
As to `COc1cccc(CNC(=O)c2ccc3n2Cc2ccccc2N(C(=O)c2ccc(-c4ccccc4C)c(C)c2)C3)c1` [Example 7], on hFSH-R, half-maximal inhibition (IC50) was put at 0.3 µM and the Emax worked out at 89%. Besides, at human FSH receptor, the IC50 was 2.25 µM.
`COc1ccc(CNC(=O)c2ccc3n2Cc2ccccc2N(C(=O)c2ccc(-c4ccccc4C)c(C)c2)C3)cc1` [Example 8] yielded a melting point of 127 to 128 °C. At hFSH-R, the IC50 amounted to 3.6 µM and the Emax amounted to 63%. The concentration for half-maximal inhibition (IC50) on human FSH receptor is 2.39 µM.
Consider `Cc1ccccc1-c1ccc(C(=O)N2Cc3ccc(C(=O)NCc4cccc(O)c4)n3Cc3ccccc32)cc1C` [Example 10], for which, at hFSH-R, the midpoint of inhibition, the IC50, lay at 0.9 µM and the Emax came out at 97%. Besides, at human FSH receptor, the IC50 came to 4.14 µM.
On to `Cc1ccccc1-c1ccc(C(=O)N2Cc3ccc(C(=O)NCCc4ccc5c(c4)OCO5)n3Cc3ccccc32)cc1C` [Example 33], for which the IC50 was over 30 µM against hFSH-R and 5.65 µM on human FSH receptor.
Consider `COc1cc(C(=O)N2Cc3ccc(C(=O)NCc4ccc(F)cc4F)n3Cc3ccccc32)ccc1-c1ccccc1C` [Example 61, N-(2,4-DILUOROBENZYL)-10-[(2-METHOXY-2′-METHYL-1,1′-BIPHENYL-4-YL)CARBONYL]-10,11-DIHYDRO-5H-PYRROLO[2,1-C][1,4]BENZODIAZEPINE-3-CARBOXAMIDE], for which, at hFSH-R (setting [1]), the IC50 was 2.8 µM and the cAMP % efficacy is reported as 82%. Further, on human FSH receptor (2-dose format, concentration in parentheses 30 μM, inhibition of the response to EC50 of FSH), the “CRE % inhibition (μM)” value was 50(30) %. For the same molecule, the half-maximal inhibitory concentration (IC50) at human FSH receptor amounted to 4.23 µM.
`COc1cc(CNC(=O)c2ccc3n2Cc2ccccc2N(C(=O)c2ccc(-c4ccccc4C)c(OC)c2)C3)cc(OC)c1` [Example 89, N-(3,5-DIMETHOXYBENZYL)-10-[(2-METHOXY-2′-METHYL-1,1′-BIPHENYL-4-YL)CARBONYL]-10,11-DIHYDRO-5H-PYRROLO[2,1-C][1,4]BENZODIAZEPINE-3-CARBOXAMIDE] registered a melting point of 175 °C. For the same molecule, the IC50 at human FSH receptor is over 30 µM.
Taken in the same sequence, the figures for `Cc1ccccc1-c1ccc(C(=O)N2Cc3ccc(C(=O)NCC(c4ccccc4)c4ccccc4)n3Cc3ccccc32)cc1C` [Example 90] were 126 to 128 °C and over 30 µM.
The molecule `Cc1ccccc1-c1ccc(C(=O)N2Cc3ccc(C(=O)NCc4ccc(N(C)C)cc4)n3Cc3ccccc32)cc1C` [Example 91] displayed a melting point of 154 to 155 °C. For the same molecule, the IC50 on human FSH receptor was over 30 µM.
As to `Cc1ccccc1-c1ccc(C(=O)N2Cc3ccc(C(=O)NC4CCc5ccccc54)n3Cc3ccccc32)cc1C` (stereo not drawn) [Example 92], the melting point was 122 to 124 °C. The IC50 at human FSH receptor was over 30 µM.
`Cc1ccccc1-c1ccc(C(=O)N2Cc3ccc(C(=O)NC4Cc5ccccc5C4)n3Cc3ccccc32)cc1C` [Example 93] yielded a melting point of 219 to 220 °C. Moreover, at human FSH receptor, the IC50 is over 30 µM.
Taken in the same sequence, the figures for `O=C(NC1CCCc2ccccc21)c1ccc2n1Cc1ccccc1N(C(=O)COc1ccc(Cl)cc1)C2` (stereo not drawn) [Example 94, 10-[(4-CHLOROPHENOXY)ACETYL]-N-(1,2,3,4-TETRAHYDRONAPHTHALEN-1-YL)-10,11-DIHYDRO-5H-PYRROLO[2,1-C][1,4]BENZODIAZEPINE-3-CARBOXAMIDE] were 199 to 200 °C and over 30 µM.
The like results for `COC(=O)c1ccc(NC(=O)c2ccc3n2Cc2ccccc2N(C(=O)COc2ccc(Cl)cc2)C3)cc1OC` [Example 95, METHYL 4-[({10-[(4-CHLOROPHENOXY)ACETYL]-10,11-DIHYDRO-5H-PYRROLO[2,1-C][1,4]BENZODIAZEPIN-3-YL}CARBONYL)AMINO]-2-METHOXYBENZOATE] were, in that order, 172 to 174 °C and over 30 µM.
The like results for `CCOC(=O)c1ccc(NC(=O)c2ccc3n2Cc2ccccc2N(C(=O)COc2ccc(Cl)cc2)C3)cc1` [Example 96, ETHYL 4-[({10-[(4-CHLOROPHENOXY)ACETYL]-10,11-DIHYDRO-5H-PYRROLO[2,1-C][1,4]BENZODIAZEPIN-3-YL}CARBONYL)AMINO]BENZOATE] were, in that order, 199 to 201 °C and over 30 µM.
The molecule `O=C(Nc1ccc2c(c1)C(O)c1ccccc1-2)c1ccc2n1Cc1ccccc1N(C(=O)COc1ccc(Cl)cc1)C2` (stereo not drawn) [Example 97, 10-[(4-CHLOROPHENOXY)ACETYL]-N-(9-HYDROXY-9H-FLUOREN-2-YL)-10,11-DIHYDRO-5H-PYRROLO[2,1-C][1,4]BENZODIAZEPINE-3-CARBOXAMIDE] came in with a melting point of 176 to 182 °C. Further, at human FSH receptor, the IC50 was over 30 µM.
Regarding `COC(=O)c1cc(NC(=O)c2ccc3n2Cc2ccccc2N(C(=O)COc2ccc(Cl)cc2)C3)cc(C(=O)OC)c1` [Example 98, DIMETHYL 5-[({10-[(4-CHLOROPHENOXY)ACETYL]-10,11-DIHYDRO-5H-PYRROLO[2,1-C][1,4]BENZODIAZEPIN-3-YL}CARBONYL)AMINO]ISOPHTHALATE], the melting point lay within 213 to 217 °C. Besides, on human FSH receptor, the half-inhibitory concentration (IC50) was over 30 µM.
The molecule `CCOC(=O)c1cccc(NC(=O)c2ccc3n2Cc2ccccc2N(C(=O)COc2ccc(Cl)cc2)C3)c1` [Example 99, ETHYL 3-[({10-[(4-CHLOROPHENOXY)ACETYL]-10,11-DIHYDRO-5H-PYRROLO[2,1-C][1,4]BENZODIAZEPIN-3-YL}CARBONYL)AMINO]BENZOATE] returned a melting point of 179 to 180 °C. Further, the half-inhibitory concentration (IC50) at human FSH receptor is over 30 µM.
For `O=C(Nc1cccc(-c2ccccc2)c1)c1ccc2n1Cc1ccccc1N(C(=O)COc1ccc(Cl)cc1)C2` [Example 100, N-(1,1′-BIPHENYL-3-YL)-10-[(4-CHLOROPHENOXY)ACETYL]-10,11-DIHYDRO-5H-PYRROLO[2,1-C][1,4]BENZODIAZEPINE-3-CARBOXAMIDE], the melting point was 185 to 189 °C. For the same molecule, on human FSH receptor, the IC50 was over 30 µM.
The molecule `CN(C)c1cccc(NC(=O)c2ccc3n2Cc2ccccc2N(C(=O)COc2ccc(Cl)cc2)C3)c1` [Example 101, 10-[(4-CHLOROPHENOXY)ACETYL]-N-[3-(DIMETHYLAMINO)PHENYL]-10,11-DIHYDRO-5H-PYRROLO[2,1-C][1,4]BENZODIAZEPINE-3-CARBOXAMIDE] yielded a melting point of 133 to 136 °C. For the same molecule, the 50% inhibitory concentration (IC50) on human FSH receptor was over 30 µM.
The like results for `CC(C)(C)c1ccc(NC(=O)c2ccc3n2Cc2ccccc2N(C(=O)COc2ccc(Cl)cc2)C3)cc1` [Example 102, N-(4-TERT-BUTYLPHENYL)-10-[(4-CHLOROPHENOXY)ACETYL]-10,11-DIHYDRO-5H-PYRROLO[2,1-C][1,4]BENZODIAZEPINE-3-CARBOXAMIDE] were, in that order, 111 to 113 °C and over 30 µM.
Taken in the same sequence, the figures for `O=C1c2cc(Br)ccc2-c2ccc(NC(=O)c3ccc4n3Cc3ccccc3N(C(=O)COc3ccc(Cl)cc3)C4)cc21` [Example 103, N-(7-BROMO-9-OXO-9H-FLUOREN-2-YL)-10-[(4-CHLOROPHENOXY)ACETYL]-10,11-DIHYDRO-5H-PYRROLO[2,1-C][1,4]BENZODIAZEPINE-3-CARBOXAMIDE] were 277 to 278 °C and over 30 µM.
The like results for `O=C(NCCc1ccc2c(c1)OCO2)c1ccc2n1Cc1ccccc1N(C(=O)CSc1ccc(Br)cc1)C2` [Example 104, N-[2-(1,3-BENZODIOXOL-5-YL)ETHYL]-10-{[(4-BROMOPHENYL)THIO]ACETYL}-10,11-DIHYDRO-5H-PYRROLO[2,1-C][1,4]BENZODIAZEPINE-3-CARBOXAMIDE] were, in that order, 143 °C and over 30 µM.

Values taken from patent US7691848B2, “Pyrrolobenzodiazepine arylcarboxamides and derivatives thereof as follicle-stimulating hormone receptor antagonists” (Wyeth, priority 2005, dated 2010).
